Values joined by “and” are separate entries in the source; they are usually repeats but may differ in a detail not shown here. Equal entries are not always repeated. “Also recorded” adds a separate entry of the source.
Columns and labels:
[1] = Plasma total cholesterol in X-ALD patients on lovastatin; format: in vivo, human; details: individual patients, at six months (Patients 1, 2, 3, 6, 7), four months (Patient 4), three months (Patient 5)
[2] = test system: rat primary oligodendrocytes; assay: Apoptosis (DNA fragmentation, laddering) in rat primary oligodendrocytes; format: cell-based; details: 10 mM NAC 1 h; diamide 0.5 mM, TNF-α 50 ng/ml or C2-ceramide; 12 h
Experimental: Detection of DNA fragmentation Cells (1×10^6) were pelleted in an eppendorf tube by centrifugation at 1,000 rpm for 5 min, washed with PBS (pH 7.4), resuspended gently in 50 μl of a lysis buffer [200 mM NaCl, 10 mM Tris-HCl (pH 8.0), 40 mM EDTA (pH 8.0), 0.5% SDS, 400 ng RNase A/μl] and incubated at 37° C. for 1 h. The lysate received 200 μl of the digestion buffer [200 mM NaCl, 10 mM Tris-HCl (pH 8.0), 0.5% SDS, 125 ng proteinase K/μl]. The contents were mixed by inversion several times and then incubated at 50° C. for 2 h. An equal volume of a mixture phenol (pH 8.0), chloroform and isoamyl alcohol (25:24:1, v/v) was added, gently mixed for 10 min, and stored at room temperature for 2 min. […] The gel was stained with ethidium bromide and DNA-intercalated ethidium fluorescence was photographed on Polaroid film 665 (P/N) using an orange filter. […]
Detection of DNA Fragmentation Cells (1×10^6) were pelleted in an Eppendorf tube by centrifugation at 1000 rpm for 5 min, washed with phosphate-buffered saline, pH 7.4, resuspended gently in 50 μl of a lysis buffer (200 mM NaCl, 10 mM Tris-HCl, pH 8.0, 40 mM EDTA, pH 8.0, 0.5% SDS, 400 ng of RNase A/μl), and incubated at 37° C. for 1 h. […] The gel was stained with ethidium bromide, and DNA-intercalated ethidium fluorescence was photographed on Polaroid film 665 (P/N) using an orange filter. […]

| Structure (SMILES) | Plasma Total Cholesterol After Treatment ([1]; after four months of treatment) [mg/dL] | Plasma Total Cholesterol After Treatment ([1]; after six months of treatment) | ceramide formation and DNA fragmentation / apoptosis [2] |
| --- | --- | --- | --- |
| CC[C@H](C)C(=O)O[C@H]1C[C@@H](C)C=C2C=C[C@H](C)[C@H](CC[C@@H]3C[C@@H](O)CC(=O)O3)[C@H]21 [Lovastatin] | 167 | 158 mg/dL and 204 mg/dL and 230 mg/dL and 183 mg/dL and 96 mg/dL | – |
| CC(=O)N[C@@H](CS)C(=O)O [NAC, N-acetyl cysteine] | – | – | inhibited the induction of ceramide formation and DNA fragmentation; also recorded: had no effect on C2-ceramide-mediated apoptosis in oligodendrocytes |
